Key:
[1] = system: Salmonella typhimurium TA98 and TA100; assay: Mini Ames assay (TA98 and TA100); format: cell-based; details: for increase in the mean number of revertants: TA98 and TA100, with or without metabolic activation (S9)
Excerpt: The Ames test in micro-method (in 6-well plates=mini Ames) follows the general principles of the standard Ames's technique. The Ames test used strains of bacteria Salmonella typhimurium that carry mutations in the genes involved in histidine synthesis. These strains are auxotrophic mutants, they require histidine for growth but cannot produce it. The assay was used to observe the ability of the test item to induce reverse mutations allowing the bacteria to grow in a histidine-free medium. The number of bacteria that revert and acquire the wild-type ability to grow in the absence of histidine can be estimated by counting the colonies that develop upon incubation. The use of different strains allows the identification of different mechanisms of gene mutation (TA98 for detection of frameshift mutations and TA100 for detection of base pair substitutions).
In a number of cases, the test item itself is not directly mutagenic but its metabolic derivatives are.
A toxicity assessment was performed on complete nutriment agar plate (with histidine) to define the highest concentration to be used in the genotoxicity assay. Solutions were prepared in 100% DMSO. The first concentration analyzed in the well (6-well plate) was 500 μg per plate followed by 7 serial dilutions (2 times factor of dilution). […] The viability of the positive and negative controls was analyzed for each strain, in the presence or absence of metabolic activation system, and were compared with historical data to validate the study. […]
Test items, positive and negative controls were incubated with the 2 bacterial strains. After 48 h incubation at 37° C. with and without metabolic activation (S9), the prototrophic mutant colonies that had grown on the plates were counted. The results were expressed as the mean number of revertants for each condition tested (3 replicates each) and for each concentration of the test item and controls. Induction ration, corresponding to the ratio of revertants in presence of test item versus spontaneous revertant, was determined for each concentration.

[2] = system: different pharmacological targets; assay: CEREP Safety Screen-44 in vitro pharmacology binding and enzyme/uptake assays; details: tested at 10 μM; FIGS. 2-5
Experimental: An in vitro pharmacology assay was conducted to assess the capability of the compounds to interact with different pharmacological targets when tested at 10 μM in different binding and enzyme/uptake assays. The included targets are indicative of potential effects in major organs and drug-drug interactions.
Compound binding was calculated as a % inhibition of the binding of a radioactively labelled ligand specific for each target. Compounds were tested at 1.0E-05 M. Compound enzyme inhibition effect was calculated as a % inhibition of control enzyme activity. Results showing an inhibition or stimulation higher than 50% are considered to represent significant effects of the test compounds.

SMILES	mutagenicity ([1]; TA98 & TA100, with and without metabolic system)	increase in the mean number of revertants [1]	pharmacological effects in safety screen compared with Ruxolitinib [2]
C=CCCN(C)S(=O)(=O)C[C@H]1C[C@@H](Nc2c(C#N)cnc3[nH]ccc23)C1 [Compound C, N-(But-3-en-1-yl)-1-((cis)-3-((5-cyano-1H-pyrrolo[2,3-b]pyridin-4-yl)amino)cyclobutyl)-N-methylmethanesulfonamide]	not considered to be mutagenic	did not induce a biologically significant increase	significantly improved pharmacological effects over Ruxolitinib
CN(CC1CCC1)S(=O)(=O)C[C@H]1C[C@@H](Nc2c(C#N)cnc3[nH]ccc23)C1 [Compound D]		did not induce a biologically significant increase	significantly improved pharmacological effects over Ruxolitinib
